Data set [1] deals with Pyrenophora teres. In words: In vivo preventive test on Pyrenophora teres (net blotch on barley). The conditions noted are these: dose 500 ppm; barley plants sprayed 24 h before contamination; grading 14 days after contamination. As for the experimental part:
Barley plants (“Plaisant” variety), sown in starter cups on a 50/50 peat soil-pozzolana substrate and grown at 22° C., are treated at the 1-leaf stage (10 cm height) by spraying with the active ingredient prepared as described above. Plants, used as controls, are treated with the mixture of acetone/tween/DMSO/water not containing the active material. After 24 hours, the plants are contaminated by spraying the leaves with an aqueous suspension of Pyrenophora teres spores (12 000 spores per ml). The spores are collected from a 12-day-old culture. […] Grading (% of efficacy) is carried out 14 days after the contamination, in comparison with the control plants.

Data set [2] has as its system Puccinia recondita. In words: In vivo preventive test on Puccinia recondita (brown rust on wheat). The conditions noted are these: wheat plants sprayed 24 h before contamination, grading 12 days after contamination. The protocol: Plants, used as controls, are treated with the mixture of acetone/tween/DMSO/water not containing the active material. After 24 hours, the plants are contaminated by spraying the leaves with an aqueous suspension of Puccinia recondita spores (100 000 spores per ml). […] Grading (% of efficacy) is carried out 12 days after the contamination, in comparison with the control plants.

Data set [3] concerns Uromyces appendiculatus. In words: In vivo preventive test on Uromyces appendiculatus (bean rust). The note with it: bean plants sprayed 24 h before contamination, grading 11 days after contamination. As for the experimental part:
Bean plants (“Saxa” variety), sown in starter cups on a 50/50 peat soil-pozzolana substrate and grown at 24° C., are treated at the 2-leaf stage (9 cm height) by spraying with the active ingredient prepared as described above. Plants, used as controls, are treated with the mixture of acetone/tween/DMSO/water not containing the active material. After 24 hours, the plants are contaminated by spraying the leaves with an aqueous suspension of Uromyces appendiculatus spores (150 000 spores per ml). […] Grading (% of efficacy) is carried out 11 days after the contamination, in comparison with the control plants.

The nature of data set [4]: Measurement of log P values by HPLC on reversed phase columns (EEC directive 79/831 Annex V.A8). The format is physicochemical.
In data set [5] the test system is Sphaerotheca fuliginea. Put plainly: In vivo preventive test on Sphaerotheca fuliginea (powdery mildew on cucurbits). The conditions noted are these: gherkin plants sprayed 24 h before contamination, grading 12 days after contamination. As for the experimental part:
Gherkin plants (“Vert petit de Paris” variety), sown in starter cups on a 50/50 peat soil-pozzolana substrate and grown at 24° C., are treated at the Z11 cotyledon stage by spraying with the active ingredient prepared as described above. Plants, used as controls, are treated with the mixture of acetone/tween/DMSO/water not containing the active material. After 24 hours, the plants are contaminated by spraying the cotyledons with an aqueous suspension of Sphaerotheca fuliginea spores (100 000 spores per ml). The spores are collected from infected plants. The contaminated to gherkin plants are incubated at about 20° C. and at 70-80% relative humidity. Grading (% of efficacy) is carried out 12 days after the contamination, in comparison with the control plants.

Each structure is given as a SMILES string.

As for `CCC1(C)CCc2c(NC(=O)c3c(C(F)F)nn(C)c3Cl)cccc21` (single isomer, unassigned) [Example 52], the Eff. % in data set [1] stood at 80%; in data set [2] (dose 500 ppm), 98%; in data set [3] (dose 500 ppm), 100%. Further, the logP in data set [4] (method marked [a]) is 4.31[a].

For the compound `CC(C)CC1CC(C)c2c(NC(=O)c3c(C(F)F)nn(C)c3Cl)cccc21` (stereo not drawn) [Example 79], the results for the Eff. % in data set [1], in data set [2] (dose 500 ppm) and in data set [3] (dose 500 ppm) were 92%, 94% and 100%, respectively. Besides, the logP in data set [4] (method marked [a]) was 4.98[a].

As to `CC1CC(CC(C)(C)C)c2cccc(NC(=S)c3c(C(F)F)nn(C)c3Cl)c21` (stereo not drawn) [Example 98], the Eff. % in data set [2] (dose 500 ppm) is recorded as 98%; in data set [5] (dose 500 ppm), 98%; in data set [3] (dose 500 ppm) it was 100%. Moreover, in data set [4] (method marked [a]), the logP was 5.31[a].

For `CC1CC(C)(C)c2c(Br)ccc(NC(=S)c3c(C(F)F)nn(C)c3F)c21` (stereo not drawn) [Example 55], the results for the Eff. % in data set [1], in data set [2] (dose 500 ppm) and in data set [3] (dose 500 ppm) were 75%, 94% and 70%, respectively. Besides, the values for the logP in data set [4] (method marked [a]) and in data set [4] (method marked [b]) were 4.64[a]; and 4.49[b], respectively.

With `CC1c2cccc(NC(=O)c3c(C(F)F)nn(C)c3Cl)c2CC1(C)C` (stereo not drawn) [Example 77], the Eff. % in data set [2] (dose 500 ppm) is 100%; in data set [5] (dose 500 ppm), 98%; in data set [3] (dose 500 ppm) it was 100%. In data set [4] (method marked [a]), the logP is 4.19[a].

Turning to `CC1CC2(CCCCC2)c2cccc(NC(=S)c3c(C(F)F)nn(C)c3F)c21` (stereo not drawn) [Example 104], the Eff. % in data set [2] (dose 100 ppm), in data set [5] (dose 100 ppm) and in data set [3] (dose 100 ppm) was 100% each time. In addition, in data set [4] (method marked [a]), the logP was 4.88[a].

Take `CC(C)C1Cc2c(NC(=O)c3c(C(F)F)nn(C)c3Cl)cccc2C1C` (stereo not drawn) [Example 21]: the results for the Eff. % in data set [2] (dose 500 ppm), in data set [5] (dose 500 ppm) and in data set [3] (dose 500 ppm) were 98%, 89% and 100%, respectively. The logP in data set [4] (method marked [a]) was 4.69[a].

Regarding `CCCON=C1CC(C)c2c(NC(=O)c3c(C(F)F)nn(C)c3Cl)cccc21` (stereo not drawn) [Example 84], the values for the Eff. % in data set [1] and in data set [2] (dose 500 ppm) were 75% and 81%, respectively. Moreover, in data set [4] (method marked [a]), the logP is 3.92[a].

With `Cn1nc(C(F)F)c(C(=S)Nc2cccc3c2CCC3C(C)(C)C)c1Cl` (stereo not drawn) [Example 74], the Eff. % in data set [2] (dose 500 ppm) came to 100%; in data set [5] (dose 500 ppm) it was 98%; in data set [3] (dose 500 ppm), 100%. Further, the logP in data set [4] (method marked [a]) was 4.64[a].

`Cn1nc(C(F)F)c(C(=O)Nc2cccc3c2CC(C2CCCC2)C3)c1Cl` (stereo not drawn) [Example 57]: the values for the Eff. % in data set [1], in data set [2] (dose 500 ppm) and in data set [3] (dose 500 ppm) were 97%, 94% and 100%, respectively. The logP in data set [4] (method marked [a]) was 5.03[a].

As for `CON=C1CC(C)c2c(NC(=O)c3c(C(F)F)nn(C)c3F)cccc21` (stereo not drawn) [Example 58], the Eff. % in data set [2] (dose 500 ppm) came to 75%; in data set [3] (dose 500 ppm) it was 95%. Besides, the logP in data set [4] (method marked [a]) is 2.75[a].

For `CC1c2c(NC(=O)c3c(C(F)F)nn(C)c3Cl)cccc2C(C)(C)C1C` (stereo not drawn) [Example 85], the Eff. % was found to be 92% in data set [1], 98% in data set [2] (dose 500 ppm) and 99% in data set [3] (dose 500 ppm). Further, in data set [4] (method marked [a]), the logP is 4.2[a].

For `Cn1nc(C(F)F)c(C(=O)Nc2cccc3c2CCC3C(C)(C)C)c1Cl` (stereo not drawn) [Example 67], the figures for the Eff. % in data set [2] (dose 500 ppm) and in data set [3] (dose 500 ppm) were 94% and 100%, respectively. Besides, the logP in data set [4] (method marked [a]) was 4.64[a].

Turning to `CC1Cc2cccc(NC(=O)c3c(C(F)F)nn(C)c3Cl)c2C1` (stereo not drawn) [Example 8], the Eff. % was determined as 94% in data set [2] (dose 500 ppm) and 100% in data set [3] (dose 500 ppm). Further, the logP in data set [4] (method marked [a]) is 3.67[a].

With `CC1CC(C)(C)c2c(Br)ccc(NC(=O)c3c(C(F)F)nn(C)c3Cl)c21` (stereo not drawn) [Example 36], the Eff. % in data set [1] is reported as 75%; in data set [3] (dose 500 ppm), 77%. Besides, the logP was 4.77[a]; in data set [4] (method marked [a]) and 4.68[b] in data set [4] (method marked [b]).

Regarding `CC1Cc2cccc(NC(=O)c3c(C(F)F)nn(C)c3F)c2C1` (stereo not drawn) [Example 7], the Eff. % in data set [2] (dose 500 ppm) stood at 98%; in data set [5] (dose 500 ppm), 78%; in data set [3] (dose 500 ppm), 100%. The logP in data set [4] (method marked [a]) is 3.31[a].

With `CC1CC2(CCCC2)c2cccc(NC(=O)c3c(C(F)F)nn(C)c3Cl)c21` (stereo not drawn) [Example 111], the Eff. % in data set [2] (dose 100 ppm) came out at 98%; in data set [3] (dose 100 ppm) it was 100%. Further, the logP in data set [4] (method marked [a]) is 4.64[a].

Take `Cc1ccc(NC(=O)c2c(C(F)F)nn(C)c2Cl)c2c1C(C)(C)CC2C` (stereo not drawn) [Example 18]: the values for the Eff. % in data set [2] (dose 500 ppm) and in data set [3] (dose 500 ppm) were 78% and 76%, respectively. Also, the values for the logP in data set [4] (method marked [a]) and in data set [4] (method marked [b]) were 4.27[a]; and 4.2[b], respectively.

For `CC1CC2(CCCCC2)c2cccc(NC(=S)c3c(C(F)F)nn(C)c3Cl)c21` (stereo not drawn) [Example 108], the Eff. % in data set [2] (dose 100 ppm) amounted to 90%; in data set [3] (dose 100 ppm), 100%. The logP in data set [4] (method marked [a]) is 5.01[a].

For `CCON=C1CC(C)c2c(NC(=O)c3c(C(F)F)nn(C)c3Cl)cccc21` (stereo not drawn) [Example 82], the figures for the Eff. % in data set [1], in data set [2] (dose 500 ppm) and in data set [3] (dose 500 ppm) were 75%, 88% and 99%, respectively. The logP in data set [4] (method marked [a]) is 3.42[a].

Turning to `Cn1nc(C(F)F)c(C(=O)Nc2cccc3c2CC(C)(C)C3)c1Br` [Example 71], the Eff. % in data set [2] (dose 500 ppm) is 98%; in data set [3] (dose 500 ppm) it was 99%. In addition, in data set [4] (method marked [a]), the logP was 3.87[a].

Take `CC1CC(C)(C)c2c(I)ccc(NC(=O)c3c(C(F)F)nn(C)c3Cl)c21` (stereo not drawn) [Example 20]: the Eff. % in data set [1] was found to be 97%; in data set [2] (dose 500 ppm), 98%; in data set [3] (dose 500 ppm), 99%. For the same compound, the logP was 4.91[a]; in data set [4] (method marked [a]) and 4.89[b] in data set [4] (method marked [b]).

As for `CC1Cc2c(NC(=O)c3c(C(F)F)nn(C)c3Br)cccc2C1(C)C` (stereo not drawn) [Example 13], the Eff. % was 75% in data set [2] (dose 500 ppm) and 79% in data set [3] (dose 500 ppm). Moreover, in data set [4] (method marked [a]), the logP was 4.16[a].

Regarding `CC1CC2(CC2)c2cccc(NC(=O)c3c(C(F)F)nn(C)c3Br)c21` (stereo not drawn) [Example 76], the Eff. % in data set [2] (dose 500 ppm) was 98%; in data set [3] (dose 500 ppm), 100%. The logP in data set [4] (method marked [a]) was 3.83[a].

For `CC(C)C1Cc2c(NC(=O)c3c(C(F)F)nn(C)c3Br)cccc2C1(C)C` (stereo not drawn) [Example 68], the Eff. % in data set [2] (dose 500 ppm) was found to be 98%; in data set [3] (dose 500 ppm), 100%. Moreover, the logP in data set [4] (method marked [a]) was 4.92[a].

On to `CC(C)CC1CC(C)c2c(NC(=O)c3c(C(F)F)nn(C)c3Cl)cccc21` (stereo not drawn) [Example 99], for which the Eff. % in data set [2] (dose 100 ppm) and in data set [3] (dose 100 ppm) was 100% throughout. The logP in data set [4] (method marked [a]) is 5.01[a].

For the compound `Cn1nc(C(F)F)c(C(=O)Nc2cccc3c2CC2(CCCC2)C3)c1Cl` [Example 15], the Eff. % in data set [1] came to 71%; in data set [2] (dose 500 ppm) it was 100%; in data set [3] (dose 500 ppm), 100%. The logP in data set [4] (method marked [a]) was 4.44[a].

Regarding `CC1CC2(CCCCC2)c2cccc(NC(=O)c3c(C(F)F)nn(C)c3Cl)c21` (stereo not drawn) [Example 110], the Eff. % in data set [2] (dose 100 ppm) came out at 83%; in data set [3] (dose 100 ppm), 99%. For the same compound, the logP in data set [4] (method marked [a]) was 5.01[a].

On to `CC1Cc2c(NC(=O)c3c(C(F)F)nn(C)c3Cl)cccc2C1C` (stereo not drawn) [Example 62], for which the values for the Eff. % in data set [2] (dose 500 ppm) and in data set [3] (dose 500 ppm) were 94% and 100%, respectively. The logP in data set [4] (method marked [a]) is 3.87[a].

Take `CC1c2cccc(NC(=O)c3c(C(F)F)nn(C)c3Br)c2CC1(C)C` (stereo not drawn) [Example 81]: the Eff. % in data set [2] (dose 500 ppm) is given as 98%; in data set [3] (dose 500 ppm), 99%. Also, in data set [4] (method marked [a]), the logP was 4.16[a].

(Values after US9375005B2, “5-halogenopyrazole indanyl carboxamides” (BAYER CROPSCIENCE AG, priority 2012, dated 2016).)
